Activity and inhibition data for 1 molecule are collected here from ChEMBL document CHEMBL4017496 (J Med Chem, 2017).

In test [1] the test system is Mesenchymal stem cell. Description: Induction of adipogenesis in human bone marrow-derived mesenchymal stem cells assessed as increase in the production of adiponectin measured on day 7 after 48 hrs by ELISA. In kind it is functional, cell-based.
The target of test [2] is T1, Oxysterols receptor LXR-alpha (Homo sapiens) (UniProt Q13133).
T1 sequence (whole entry): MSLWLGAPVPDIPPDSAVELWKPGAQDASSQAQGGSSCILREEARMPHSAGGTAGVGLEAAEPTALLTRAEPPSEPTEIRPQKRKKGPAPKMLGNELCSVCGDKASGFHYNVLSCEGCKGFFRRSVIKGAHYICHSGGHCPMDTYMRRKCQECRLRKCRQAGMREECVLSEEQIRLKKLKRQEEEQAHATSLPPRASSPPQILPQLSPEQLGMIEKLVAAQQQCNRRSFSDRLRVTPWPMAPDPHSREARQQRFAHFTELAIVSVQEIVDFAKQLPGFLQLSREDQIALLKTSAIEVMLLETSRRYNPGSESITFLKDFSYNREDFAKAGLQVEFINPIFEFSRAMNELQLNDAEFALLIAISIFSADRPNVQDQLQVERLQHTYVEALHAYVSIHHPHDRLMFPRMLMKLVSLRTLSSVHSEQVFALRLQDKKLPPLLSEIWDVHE
Description: Binding affinity to human LXRalpha at 4 uM by TR-FRET assay.

Test [3] addresses T2, Peroxisome proliferator-activated receptor alpha (Homo sapiens) (UniProt Q07869).
T2 sequence (whole entry): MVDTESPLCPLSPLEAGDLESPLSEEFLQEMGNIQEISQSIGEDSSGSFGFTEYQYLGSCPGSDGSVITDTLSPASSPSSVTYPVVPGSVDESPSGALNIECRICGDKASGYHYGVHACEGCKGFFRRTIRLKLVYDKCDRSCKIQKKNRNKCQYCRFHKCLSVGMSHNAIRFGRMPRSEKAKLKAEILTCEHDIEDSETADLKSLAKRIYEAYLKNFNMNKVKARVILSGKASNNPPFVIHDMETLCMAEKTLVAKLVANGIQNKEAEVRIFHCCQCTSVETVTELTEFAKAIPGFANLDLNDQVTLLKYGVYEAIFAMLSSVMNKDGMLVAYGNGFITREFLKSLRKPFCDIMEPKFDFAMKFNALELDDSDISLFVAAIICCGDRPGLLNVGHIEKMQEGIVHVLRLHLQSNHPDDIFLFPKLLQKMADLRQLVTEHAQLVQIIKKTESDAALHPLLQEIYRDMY
As to the kind of experiment: Displacement of Fluormone-Pan-PPAR Green from human GST-tagged PPARalpha LBD at 20 uM by TR-FRET assay relative to control. A general note: Time-resolved FRET reads energy transfer from a long-lived donor to a nearby acceptor.

Test [4] is described as follows: Induction of adipogenesis in human bone marrow-derived mesenchymal stem cells assessed as adiponectin level at 4 uM measured on day 7 after 48 hrs by ELISA. In kind it is functional, Mesenchymal stem cell. (In general: In an ELISA, binding on a coated surface is turned into a signal by an enzyme label.)
Test [5] deals with T3, Glucocorticoid receptor (Homo sapiens) (UniProt P04150).
T3 sequence (whole entry): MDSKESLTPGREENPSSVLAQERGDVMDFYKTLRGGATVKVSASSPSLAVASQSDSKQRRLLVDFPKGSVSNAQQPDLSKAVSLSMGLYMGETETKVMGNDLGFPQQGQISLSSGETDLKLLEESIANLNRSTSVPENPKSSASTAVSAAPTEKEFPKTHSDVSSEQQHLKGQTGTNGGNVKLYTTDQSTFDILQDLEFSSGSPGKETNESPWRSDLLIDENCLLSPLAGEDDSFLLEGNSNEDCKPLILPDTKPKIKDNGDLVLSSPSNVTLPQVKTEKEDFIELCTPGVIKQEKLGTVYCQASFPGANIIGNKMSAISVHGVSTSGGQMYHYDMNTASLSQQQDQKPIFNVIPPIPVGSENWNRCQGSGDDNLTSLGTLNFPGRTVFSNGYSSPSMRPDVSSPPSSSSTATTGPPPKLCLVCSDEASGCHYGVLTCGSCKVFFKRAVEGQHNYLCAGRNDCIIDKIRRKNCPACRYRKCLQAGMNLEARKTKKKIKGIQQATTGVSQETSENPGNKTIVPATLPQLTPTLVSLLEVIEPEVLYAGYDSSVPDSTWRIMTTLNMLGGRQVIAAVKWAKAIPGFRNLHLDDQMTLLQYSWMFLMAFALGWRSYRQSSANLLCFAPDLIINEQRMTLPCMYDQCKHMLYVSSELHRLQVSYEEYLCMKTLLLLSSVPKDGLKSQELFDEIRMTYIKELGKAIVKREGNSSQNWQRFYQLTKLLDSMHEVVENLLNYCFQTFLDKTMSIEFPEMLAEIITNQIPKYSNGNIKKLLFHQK
Description: Displacement of Fluormone-GS1 from human GST-tagged glucocorticoid receptor LBD at 4 uM by TR-FRET assay.

The test system of test [6] is Mus musculus. Description: Antidiabetic activity in STZ-induced diabetic C57BL/6J mouse assessed as insulin sensitivity by measuring reduction of serum triglyceride level at 20 mg/kg,po for 5 days. In kind it is functional, organism-based.
Test [7] deals with Mus musculus. Description: Antidiabetic activity in STZ-induced diabetic C57BL/6J mouse assessed as insulin sensitivity by measuring reduction of serum lactate level at 20 mg/kg,po for 5 days. The format is functional, organism-based.
Test [8] concerns Mesenchymal stem cell. Description: Induction of adipogenesis in human bone marrow-derived mesenchymal stem cells assessed as increase in adiponectin production at 20.4 uM after 7 days in presence of IDX. The format is functional, cell-based.

Activity calls are given as the source filed them. The rule behind the calls is not given here.

Broadly, the inhibition is the change of the read-out against control, counted positive when it falls. As to `CNC(=O)[C@H]1O[C@@H](n2cnc3c(NCc4cccc(I)c4)ncnc32)[C@H](O)[C@@H]1O` [IB-MECA], the Activity result with Mesenchymal stem cell [1] is “Dose-dependent effect”; in test [4], 117 pg/mL. For the same molecule, the result in test [2] was inactive. In addition, in test [3], the inhibition was determined as 16%. In addition, in test [5], the inhibition result is “inactive”. For the same molecule, the outcome in the test on Mus musculus [6], in the test on Mus musculus [7] and with Mesenchymal stem cell [8] was Active.
